The term half-life denotes how long it takes for the measured level to halve.

A short description of series [1]: Single-dose pharmacokinetic study, plasma and heart concentration by LC/MS/MS. The settings on record: for Tmax: female, CD-1, mouse, plasma and heart. The class given is in vivo, CD-1 mice. As to the method:
For single-dose pharmacokinetic studies, 7-9 week old female CD-1 mice were obtained from Charles River Laboratories, Inc. by Covance Laboratories Inc., Greenfield, Ind., USA. For subcutaneous injection, GsMTx4-D was dissolved at a concentration of 7.5 mg/ml in phosphate buffered saline pH 7.4 and injected subcutaneously into the back of mice at a net dose of 50 mg/kg. For intravenous (IV) administration into the tail vein, 1.5 mg/ml GsMTx4-D was used to achieve a dose of 5 mg/kg. Animals were sacrificed at 5, 15, 30, 60, 120, 480, 960 and 1920 min after injection, and blood and heart tissue samples were harvested. Animals were checked for death or morbidity during the whole trial. At the conclusion of each trial period, mice were euthanized by CO2 inhalation for 10 min. Blood samples were treated with sodium heparin and centrifuged to obtain plasma. There were cohorts of 3 mice per time point, and tissue samples from the 3 animals were combined from each time point to create average samples. Samples were sent to Custom Biologics, Mississauga, ON, Canada to measure the amount of GsMTx4 by liquid chromatography tandem mass spectrometry (LC/MS/MS) in the tissue samples. A reference standard was included in each sample consisting of a functional mutant of GsMTx4-D (F34A). All procedures in this protocol are in compliance with the U.S. Department of Agriculture's (USDA) Animal Welfare Act (9 CFR Parts 1, 2, and 3); the Guide for the Care and Use of Laboratory Animals: Eighth Edition, (Institute for Laboratory Animal Research, The National Academies Press, Washington, D.C., 2010); and the National Institutes of Health, Office of Laboratory Animal Welfare. Whenever possible, procedures in this study were designed to avoid or minimize discomfort, distress, and pain to animals. For ischemic reperfusion (I/R) testing, we used male C57B1/6J mice (4-6 months of age) obtained from Jackson Laboratories (Bar Harbor, […].). All animal protocols in this study were approved by the Institutional Animal Care and Use Committee of the University at Buffalo-State University of New York.
To provide a frame of reference for concentration and timing, we compared IV (fast absorption) to subcutaneous (slow absorption) administration and determined the distribution of the peptide in the heart and plasma over 24 hrs using LC/MS/MS (FIG. 1). Mice were sacrificed at different times after injection and the plasma (FIG. 1A) and heart (FIG. 1B) concentrations sampled. […] The samples from the 3 mouse cohorts at each time point were mixed and averaged. […] IV injection of 5 mg/kg GsMTx4-D produced an early spike in plasma concentration ([…] at 5 min) that decayed within 30 min. […] We used 1-5 μM ([…] is 1 μM) as our target concentration for treatment. IV injection of 5 mg/kg GsMTx4-D produced plasma concentrations within 5 minutes that were substantially above the target concentration while whole heart concentrations were somewhat lower than this range. Other ranges may be used for treatment, such as about 1.5-4.5 μM, about 2-4 μM, about 2.5-3.5 μM, about 1-4 μM, about 1-3 μM and about 1-2 μM. The whole heart concentration was lower than the target range within 5 minutes of IV injection, but the net plasma concentrations were acceptable.
Based on the slower distribution by subcutaneous administration, we injected 10 times the concentration of GsMTx4-D as that used in IV injection. The concentrations increased more slowly in both plasma and heart, peaking in ˜2 hrs, although we could reliably detect it in both tissues within 5 minutes. […] Without being bound by any theory, we believe that this is likely due to deeper infiltration into the tissue, and possibly higher affinity associations.

In series [2] the test system is ischemic reperfusion injury in mouse heart. In words: In vivo pressure-volume relationships after I/R (left ventricular catheterization). On the set-up: species or system C57B1/6J mice. The settings on record: 50 mg/kg IP pretreatment, 24 h reperfusion. As to the method:
In order to determine hemodynamic differences, we measured the pressure-volume (P-V) relationships in real time in 3 groups of mice, including a sham group that was exposed to the open heart operation but not FR, and the two I/R (20min ischemia/24h reperfusion) induced groups pretreated with either vehicle or GsMTx4-D. To measure the P-V relationships, mice were anesthetized with 4% isoflurane and 100% O2, quickly intubated and ventilated with a respirator. […] The rib cage was slightly retracted and the diaphragm was gently cut away to attain an apical view of the myocardium. A 27-gauge needle was inserted into the apex of the LV free wall to create a guide-hole. A 1.2-French microtransducer pressure-volume impedance catheter (Scisense, London, ON, CA) was then inserted into the lumen of LV to assess real-time LV function. Hemodynamic parameters such as heart rate, cardiac output, and ejection fraction were measured and calculated with the iWorx software (Dover, N.H.). Each group included 5 (sham and GsMTx4-D) to 6 (vehicle) independent experiments.
To examine the effects of GsMTx4-D on hemodynamics, we compared the P-V relationships between the GsMTx4-D (50 mg/kg) and vehicle (saline 50 μL) in pretreated mice. After 20 min of ischemia followed by 24 h reperfusion, the left ventricle was catheterized to acquire real time P-V relationships (FIG. 3). […] In addition, GsMTx4-D produced improvements in both end systolic and diastolic volumes (FIG. 3 H and I) that led to a significant improvement in ejection fraction (61.7±3.4%, P<0.05) (FIG.3 G). Clearly, GsMTx4-D improves heart function after FR.

Where [3] appears, read: subcutaneous injection 50 mg/kg.

Where two headings read alike, the source gives them in different places. Where a SMILES comes first, the peptide text is derived from it. Bridges are numbered along the chain shown (N, C = ends). [ ]: non-standard residue; d: D form.

For `CC(C)C[C@H]1NC(=O)[C@H](NC(=O)CN)CSSC[C@H]2NC(=O)[C@H]3CSSC[C@H](C(=O)N[C@H](CC(N)=O)C(=O)N[C@H](Cc4ccccc4)C(=O)N[C@H](CO)C(=O)N[C@H](Cc4ccccc4)C(N)=O)NC(=O)[C@@H](CC(C)C)NC(=O)[C@@H](CCCCN)NC(=O)[C@@H](Cc4ccccc4)NC(=O)[C@@H](CC(C)C)NC(=O)[C@@H](CCCCN)NC(=O)[C@@H](CO)NC(=O)[C@@H](CSSC[C@@H](NC(=O)[C@@H](CCCCN)NC(=O)[C@@H](Cc4c[nH]c5ccccc45)NC(=O)[C@@H](Cc4c[nH]c5ccccc45)NC(=O)[C@@H](Cc4ccccc4)NC(=O)[C@@H](CCC(=O)O)NC1=O)C(=O)N[C@H](CC(N)=O)C(=O)N1CCC[C@@H]1C(=O)N[C@H](CC(N)=O)C(=O)N[C@H](CC(=O)O)C(=O)N[C@H](CC(=O)O)C(=O)N[C@H](CCCCN)C(=O)N3)NC(=O)[C@@H](CCCCN)NC(=O)[C@@H](CC(C)C)NC(=O)[C@@H](CCCCN)NC(=O)[C@H]1CCCN1C(=O)[C@@H](CCCNC(=N)N)NC2=O` [GsMTx4-D] (H-G[dC][dL][dE][dF][dW][dW][dK][dC][dN][dP][dN][dD][dD][dK][dC][dC][dR][dP][dK][dL][dK][dC][dS][dK][dL][dF][dK][dL][dC][dN][dF][dS][dF]-NH2; disulfide 2-17, 9-23, 16-30 (inferred); N-terminus and C-terminus assumed), the “death or abnormal behavior during PK study” value in series [1] (IV 5 mg/kg or subcutaneous 50 mg/kg) was “No mice died during the study, nor did any show abnormal behavior”. Also, the “time within which plasma concentration spike decayed” value in series [1] (IV injection of 5 mg/kg) is recorded as at most 30 min. In series [1] (5 mg/kg, after IV injection, read-out: time of concentration spike in plasma and heart), the Tmax was under 0.0833 h. Besides, the Tmax in series [1] (sc, subcutaneous injection 50 mg/kg, read-out: time of peak concentration in plasma and heart) is about 2 h. This compound returned a half-life in series [1] (mouse, in vivo, D form) of over 24 h. Moreover, the “heart concentration twenty four hours after injection” value in series [1] (single 50 mg/kg subcutaneous injection, target range 1-5 μM) was “near the target range”. In series [1] (setting [3]), the “plasma concentration by 24 hrs” value was “nearly undetectable”; the “time of peak concentration in plasma and heart” value is about 2 h. The stroke volume in series [2] (vehicle 18.9±2.3, sham 26.7±1.9) worked out at 26.2 ± 1.9 µL. Also, the ejection fraction in series [2] (vehicle 44.4±4.9, sham 75.5±6.4) is on record as 61.7±3.4%. For the same compound, the heart rate in series [2] (vehicle 243.9±6.9, sham 304.0±23.6) is 298.7±14.3 bpm. Moreover, in series [2] (vehicle 4636±602, sham 8039±690), the cardiac output was 77580 ± 321 µL/min. Moreover, in series [2] (vs vehicle), the “end systolic and diastolic volumes” value is given as “improvements”.

Values taken from patent US20170072012A1, “USE OF GSMTX4 TO REDUCE ISCHEMIA REPERFUSION INJURY” (priority 2014, published 2017).
